In the NIST ThermoML archive (doi:10.1021/je700648c):
Where “and” joins values, the source holds several entries; their conditions need not be identical. Identical values can stand only once.

Experiments:
[1] = 101 kPa, Liquid
[2] = xn = mol fraction of the nth substance listed; conditions: 101 kPa, Liquid

CCn1cc[n+](C)c1.O=S(=O)([N-]S(=O)(=O)C(F)(F)C(F)(F)F)C(F)(F)C(F)(F)F
[1]
Conditions | mass density
298.15 K | 1593.2 kg/m3
303.15 K | 1587.6 kg/m3 and 1587.3 kg/m3
313.15 K | 1576.7 kg/m3

CCn1cc[n+](C)c1.O=S(=O)([N-]S(=O)(=O)C(F)(F)C(F)(F)F)C(F)(F)C(F)(F)F + CC(C)=O
mass density [kg/m3], [2]
Conditions | 298.15 K | 303.15 K | 313.15 K
x2 = 0 | 1593.2 | 1587.3 | 1576.7
x2 = 0.0807 | 1576.8 | 1571.1 | 1560.2
x2 = 0.1417 | 1563.1 | 1557.4 | 1546.4
x2 = 0.2521 | 1534.6 | 1528.8 | 1517.7
x2 = 0.2791 | 1526.6 | 1520.8 | 1509.6
x2 = 0.415 | 1479.2 | 1473.3 | 1462.2
x2 = 0.5195 | 1431.8 | 1425.8 | 1414.8
x2 = 0.5676 | 1405.5 | 1399.5 | 1388.4
x2 = 0.7092 | 1303.1 | 1297.2 | 1285.7
x2 = 0.755 | 1258.2 | 1252.2 | 1240.8
x2 = 0.8137 | 1188.4 | 1182.5 | 1170.8
x2 = 0.8927 | 1062 | 1055.9 | 1044.3
x2 = 0.9502 | 935 | 929.1 | 917.6

CCn1cc[n+](C)c1.O=S(=O)([N-]S(=O)(=O)C(F)(F)C(F)(F)F)C(F)(F)C(F)(F)F + CO
mass density [kg/m3], [2]
Conditions | x2 = 0 | x2 = 0.0584 | x2 = 0.1116 | x2 = 0.1686 | x2 = 0.2956 | x2 = 0.5104 | x2 = 0.6083 | x2 = 0.706 | x2 = 0.8237 | x2 = 0.9033
298.15 K | 1593.2 | 1586.2 | 1579.4 | 1571.3 | 1549.7 | 1494.6 | 1455.3 | 1398.9 | 1285.9 | 1148.2
303.15 K | 1587.6 | 1580.5 | 1573.7 | 1565.6 | 1544 | 1488.9 | 1449.6 | 1393.2 | 1280.2 | 1142.6
313.15 K | 1576.7 | 1569.5 | 1562.6 | 1554.5 | 1532.8 | 1477.7 | 1438.3 | 1382 | 1269.3 | 1132

CCn1cc[n+](C)c1.COCCOCCOS(=O)(=O)[O-] [1-ethyl-3-methylimidazolium 2-(2-methoxyethoxy) ethylsulfate] + CO
[2], 298.15 K
Conditions | speed of sound [m/s]
x2 = 0.1791 | 1677.6
x2 = 0.356 | 1647
x2 = 0.4548 | 1620
x2 = 0.5356 | 1597.2
x2 = 0.6298 | 1563.6
x2 = 0.7412 | 1499.4
x2 = 0.7987 | 1453.2
x2 = 0.8527 | 1387.5
x2 = 0.9011 | 1324.8
x2 = 0.9298 | 1270.8
x2 = 0.962 | 1201.2
x2 = 0.9829 | 1158

CC(C)=O [acetone]
[1]
Conditions | mass density [kg/m3]
298.15 K | 784.1
303.15 K | 778.4
313.15 K | 766.9

CC(C)=O [acetone] + CCn1cc[n+](C)c1.O=S(=O)([N-]S(=O)(=O)C(F)(F)C(F)(F)F)C(F)(F)C(F)(F)F
[2], x1 = 1
Conditions | mass density [kg/m3]
298.15 K | 784.1
303.15 K | 778.4
313.15 K | 766.9

CO [methanol] + CCn1cc[n+](C)c1.O=S(=O)([N-]S(=O)(=O)C(F)(F)C(F)(F)F)C(F)(F)C(F)(F)F
[2], x1 = 1
Conditions | mass density [kg/m3]
298.15 K | 786.6
303.15 K | 781.9
313.15 K | 772.6
